Test results published in patent US20250270209A1 (INTERLINE THERAPEUTICS, INC., priority 2022, published 2025).

What was measured:
[1] = biological target: T1, wild type LRRK2 overexpressed in recombinant HEK-293T cells (Homo sapiens, UniProt Q5S007); experiment: pS935 LRRK2 Cell Assay (HTRF, phospho-LRRK2 Ser935); format: cell-based; details: LRRK2 Inhibition, Table 8, 2 hours compound incubation
T1 construct: host or cells: HEK293T (transient transfection with pCMV-LRRK2 WT plasmid)
Method in brief: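 Phospho-Ser935 LRRK2 measured by two-antibody HTRF (Eu-cryptate donor, d2 acceptor; 665/615 nm ratio) after overnight detection at 23° C. Before lysis, transiently LRRK2-transfected HEK-293T cells were exposed 2 h at 37° C to a 9-point, 3-fold series from 10 μM, with DMSO at 0.2%.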

LRRK2 wild type enzyme = LRRK2 wild type enzyme (Homo sapiens, UniProt Q5S007); experiment: Biochemical Assay: LRRK2 TR-FRET (LanthaScreen) kinase assay with LRRKtide substrate; details: LRRK2 Inhibition, Table 8
Method in brief: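 TR-FRET detection (Tb-labelled phospho-LRRKtide antibody, EDTA stop, 30 min) followed a 120 min, 23 °C reaction of 3 nM wild-type human LRRK2 with LRRKtide (400 nM) and ATP (25 μM) in Tris pH 8.0. Compounds: 11-point 3-fold series from 10 μM, 15 min enzyme preincubation.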

T1 sequence (Q5S007 whole entry): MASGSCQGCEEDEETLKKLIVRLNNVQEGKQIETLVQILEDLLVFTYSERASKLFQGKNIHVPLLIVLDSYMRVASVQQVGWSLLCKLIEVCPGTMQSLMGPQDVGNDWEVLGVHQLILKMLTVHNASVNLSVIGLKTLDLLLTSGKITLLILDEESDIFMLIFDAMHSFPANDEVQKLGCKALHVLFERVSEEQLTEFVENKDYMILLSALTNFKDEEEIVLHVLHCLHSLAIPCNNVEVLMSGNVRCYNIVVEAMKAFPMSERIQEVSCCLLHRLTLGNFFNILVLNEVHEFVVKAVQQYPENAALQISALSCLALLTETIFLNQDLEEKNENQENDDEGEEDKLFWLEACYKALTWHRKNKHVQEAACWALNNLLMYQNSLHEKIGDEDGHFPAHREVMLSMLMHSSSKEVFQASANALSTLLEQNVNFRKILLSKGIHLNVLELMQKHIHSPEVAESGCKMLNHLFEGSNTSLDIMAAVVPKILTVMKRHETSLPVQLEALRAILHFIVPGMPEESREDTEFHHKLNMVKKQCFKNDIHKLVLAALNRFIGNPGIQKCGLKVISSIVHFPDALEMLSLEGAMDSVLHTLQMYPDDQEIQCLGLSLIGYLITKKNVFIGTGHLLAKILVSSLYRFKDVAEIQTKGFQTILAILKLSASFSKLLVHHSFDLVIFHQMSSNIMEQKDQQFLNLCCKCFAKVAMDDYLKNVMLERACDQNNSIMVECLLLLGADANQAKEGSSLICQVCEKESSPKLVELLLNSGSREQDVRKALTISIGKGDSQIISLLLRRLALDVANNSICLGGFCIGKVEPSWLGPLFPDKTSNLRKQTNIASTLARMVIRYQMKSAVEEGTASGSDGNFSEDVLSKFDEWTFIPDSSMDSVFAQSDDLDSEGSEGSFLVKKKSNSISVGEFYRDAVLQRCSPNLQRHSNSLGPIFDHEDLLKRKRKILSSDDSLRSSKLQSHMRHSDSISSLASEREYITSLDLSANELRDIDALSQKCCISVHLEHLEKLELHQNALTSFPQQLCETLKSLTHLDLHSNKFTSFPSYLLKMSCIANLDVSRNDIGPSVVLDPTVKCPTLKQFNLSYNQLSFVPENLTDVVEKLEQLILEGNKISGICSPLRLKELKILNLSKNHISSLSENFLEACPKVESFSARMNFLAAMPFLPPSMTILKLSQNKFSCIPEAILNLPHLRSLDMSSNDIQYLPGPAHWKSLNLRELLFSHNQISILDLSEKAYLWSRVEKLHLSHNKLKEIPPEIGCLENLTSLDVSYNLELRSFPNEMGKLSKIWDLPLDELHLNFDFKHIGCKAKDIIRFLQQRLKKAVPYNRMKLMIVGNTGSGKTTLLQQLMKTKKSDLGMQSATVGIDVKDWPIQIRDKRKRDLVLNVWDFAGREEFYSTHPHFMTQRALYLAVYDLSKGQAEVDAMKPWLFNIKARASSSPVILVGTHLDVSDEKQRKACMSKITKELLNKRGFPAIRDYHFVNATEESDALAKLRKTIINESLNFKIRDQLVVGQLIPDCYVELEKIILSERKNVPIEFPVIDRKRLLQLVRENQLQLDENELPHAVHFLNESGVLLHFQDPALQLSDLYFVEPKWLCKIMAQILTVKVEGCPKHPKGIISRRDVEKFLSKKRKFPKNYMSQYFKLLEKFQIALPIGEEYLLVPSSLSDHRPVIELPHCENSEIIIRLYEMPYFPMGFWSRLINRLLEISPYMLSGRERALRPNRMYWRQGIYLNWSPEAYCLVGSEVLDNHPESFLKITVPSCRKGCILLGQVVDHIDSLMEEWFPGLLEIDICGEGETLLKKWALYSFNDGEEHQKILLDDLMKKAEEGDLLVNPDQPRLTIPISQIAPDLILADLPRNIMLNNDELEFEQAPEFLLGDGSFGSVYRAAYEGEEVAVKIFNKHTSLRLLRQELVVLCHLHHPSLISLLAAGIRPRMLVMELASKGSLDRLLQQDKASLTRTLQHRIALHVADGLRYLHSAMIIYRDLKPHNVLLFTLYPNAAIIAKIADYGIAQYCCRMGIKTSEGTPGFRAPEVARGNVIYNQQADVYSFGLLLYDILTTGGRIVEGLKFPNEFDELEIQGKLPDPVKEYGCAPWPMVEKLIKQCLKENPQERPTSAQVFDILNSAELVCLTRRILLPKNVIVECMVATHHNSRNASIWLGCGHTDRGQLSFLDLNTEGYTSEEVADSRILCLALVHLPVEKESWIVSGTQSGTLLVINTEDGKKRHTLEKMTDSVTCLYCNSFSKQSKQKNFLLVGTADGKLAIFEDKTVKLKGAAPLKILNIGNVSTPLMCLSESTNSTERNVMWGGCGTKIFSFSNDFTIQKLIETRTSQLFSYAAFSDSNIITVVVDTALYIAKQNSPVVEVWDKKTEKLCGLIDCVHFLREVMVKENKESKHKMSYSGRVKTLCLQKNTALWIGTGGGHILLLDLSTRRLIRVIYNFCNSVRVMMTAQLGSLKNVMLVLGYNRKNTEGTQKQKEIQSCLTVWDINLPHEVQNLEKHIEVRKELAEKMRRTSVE
Chain of LRRK2 wild type enzyme (Q5S007 whole entry): as above

| Structure (SMILES) | IC50 [1] [nM] | IC50 (LRRK2 wild type enzyme) [nM] |
| --- | --- | --- |
| C[C@@H]1C[C@H](n2c(CC(=O)NC3(CF)CC3)nc3cnc4ccc(C#N)cc4c32)CCO1 [Compound 294, N-1-(fluoromethyl)cyclopropyl{3-[(2R,4R)-2-methyltetrahydro-2H-pyran-4-yl]-12-cyano-3,5,8-triazatricyclo[7.4.0.0^2,6]trideca-1,4,6,8,10,12-hexaen-4-yl}acetamide] | 132 | 1.48 |
| CC(C)Oc1ccc(NC(=O)Cc2nc3cnc4ccc(C#N)cc4c3n2[C@@H]2CCO[C@H](C)C2)cn1 [Compound 273, N-(6-isopropoxy-3-pyridyl){3-[(2R,4R)-2-methyltetrahydro-2H-pyran-4-yl]-12-cyano-3,5,8-triazatricyclo[7.4.0.0^2,6]trideca-1,4,6,8,10,12-hexaen-4-yl}acetamide] | 5.59 | 0.478 |
| COc1c(NC(=O)Cc2nc3cnc4ccc(C#N)cc4c3n2[C@@H]2CCO[C@H](C)C2)cnn1C [Compound 224, N-(5-methoxy-1-methyl-4-pyrazolyl){3-[(2R,4R)-2-methyltetrahydro-2H-pyran-4-yl]-12-cyano-3,5,8-triazatricyclo[7.4.0.0^2,6]trideca-1,4,6,8,10,12-hexaen-4-yl}acetamide] | 87.9 | 1.42 |
| COCCNC(=O)Cc1nc2cnc3ccc(Cl)cc3c2n1[C@@H]1CCO[C@H](C)C1 [Compound 164, 2-{8-chloro-1-[(2R,4R)-2-methyloxan-4-yl]-1H-imidazo[4,5-c]quinolin-2-yl}-N-(2-methoxyethyl)acetamide] | 15.2 | 0.369 |
| C[C@@H]1C[C@H](n2c([C@H]3CN(CC4CC4)C(=O)O3)nc3cnc4ccc(C#N)cc4c32)CCO1 [Compound 36, 2-[(5R)-3-(cyclopropylmethyl)-2-oxo-1,3-oxazolidin-5-yl]-1-[(2R,4R)-2-methyloxan-4-yl]-1H-imidazo[4,5-c]quinoline-8-carbonitrile] | 63.8 | 1.16 |
| C[C@@H]1C[C@H](n2c(CC(=O)NC3CCOCC3)nc3cnc4ccc(Cl)cc4c32)CCO1 [Compound 192, 2-{8-chloro-1-[(2R,4R)-2-methyloxan-4-yl]-1H-imidazo[4,5-c]quinolin-2-yl}-N-(oxan-4-yl)acetamide] | 13.3 | 0.385 |
| C[C@@H]1C[C@H](n2c(CC(=O)NC[C@H]3CCCO3)nc3cnc4ccc(C#N)cc4c32)CCO1 [Compound 153, 2-{8-cyano-1-[(2R,4R)-2-methyloxan-4-yl]-1H-imidazo[4,5-c]quinolin-2-yl}-N-{[(2R)-oxolan-2-yl]methyl} acetamide] | 21.3 | 0.514 |
| C[C@@H]1C[C@H](n2c(CC(=O)Nc3cc(C(F)(F)F)on3)nc3cnc4ccc(C#N)cc4c32)CCO1 [Compound 339, N-[5-(trifluoromethyl)-3-isoxazolyl]{3-[(2R,4R)-2-methyltetrahydro-2H-pyran-4-yl]-12-cyano-3,5,8-triazatricyclo[7.4.0.0^2,6]trideca-1(9),2(6),4,7,10,12-hexaen-4-yl}acetamide] | 11.6 | 1.13 |
| C[C@@H]1C[C@H](n2c(CC(=O)Nc3ccnnc3)nc3cnc4ccc(C#N)cc4c32)CCO1 [Compound 268, N-4-pyridazinyl{3-[(2R,4R)-2-methyltetrahydro-2H-pyran-4-yl]-12-cyano-3,5,8-triazatricyclo[7.4.0.0^2,6]trideca-1,4,6,8,10,12-hexaen-4-yl}acetamide] | 109 | 0.461 |
| C[C@@H]1C[C@H](n2c(CC(=O)Nc3ccnn(C)c3=O)nc3cnc4ccc(C#N)cc4c32)CCO1 [Compound 215, N-(2-methyl-3-oxo-2,3-dihydro-4-pyridazinyl){3-[(2R,4R)-2-methyltetrahydro-2H-pyran-4-yl]-12-cyano-3,5,8-triazatricyclo[7.4.0.0^2,6]trideca-1,4,6,8,10,12-hexaen-4-yl}acetamide] | 5.85 | 0.438 |
| C[C@@H]1C[C@H](n2c([C@H]3CNC(=O)C3)nc3cnc4ccc(C#N)cc4c32)CCO1 [Compound 72, 1-[(2R,4R)-2-methyloxan-4-yl]-2-[(3R)-5-oxopyrrolidin-3-yl]-1H-imidazo[4,5-c]quinoline-8-carbonitrile] | 3600 | 1.86 |
| C[C@@H]1C[C@H](n2c(CC(=O)Nc3ccon3)nc3cnc4ccc(Cl)cc4c32)CCO1 [Compound 352, N-3-isoxazolyl{3-[(2R,4R)-2-methyltetrahydro-2H-pyran-4-yl]-12-chloro-3,5,8-triazatricyclo[7.4.0.0^2,6]trideca-1(9),2(6),4,7,10,12-hexaen-4-yl}acetamide] | 4.06 | 0.507 |
| C[C@@H]1C[C@H](n2c(C3CC(=O)N(Cc4cccnc4)C3)nc3cnc4ccc(C#N)cc4c32)CCO1 (mixture of isomers) [Compound 57, 1-[(2R,4R)-2-methyloxan-4-yl]-2-[(3RS)-5-oxo-1-[(pyridin-3-yl)methyl]pyrrolidin-3-yl]-1H-imidazo[4,5-c]quinoline-8-carbonitrile] | 216 | 0.958 |
| C[C@@H]1C[C@H](n2c([C@@H]3CC(=O)N(c4cnn(C)c4)C3)nc3cnc4ccc(C#N)cc4c32)CCO1 [Compound 48, 2-[(3R)-1-(1-methyl-1H-pyrazol-4-yl)-5-oxopyrrolidin-3-yl]-1-[(2R,4R)-2-methyloxan-4-yl]-1H-imidazo[4,5-c]quinoline-8-carbonitrile] | 110 | 0.921 |
| C[C@@H]1C[C@H](n2c([C@@H]3CCCN(C(=O)C4CC4)C3)nc3cnc4ccc(C#N)cc4c32)CCO1 [Compound 28, 2-[(3R)-1-cyclopropanecarbonylpiperidin-3-yl]-1-[(2R,4R)-2-methyloxan-4-yl]-1H-imidazo[4,5-c]quinoline-8-carbonitrile] | 773 | 12.3 |
| C[C@@H]1C[C@H](n2c(CC(=O)Nc3nccnc3Cl)nc3cnc4ccc(C#N)cc4c32)CCO1 [Compound 308, N-(3-chloro-2-pyrazinyl){3-[(2R,4R)-2-methyltetrahydro-2H-pyran-4-yl]-12-cyano-3,5,8-triazatricyclo[7.4.0.0^2,6]trideca-1(9),2(6),4,7,10,12-hexaen-4-yl}acetamide] | 18.6 | 1.25 |
| C[C@@H]1C[C@H](n2c([C@@H]3CCN(S(C)(=O)=O)C3)nc3cnc4ccc(C#N)cc4c32)CCO1 [Compound 38, 2-[(3R)-1-methanesulfonylpyrrolidin-3-yl]-1-[(2R,4R)-2-methyloxan-4-yl]-1H-imidazo[4,5-c]quinoline-8-carbonitrile] | 772 | 7.3 |
| Cc1nn(C)c(C)c1NC(=O)Cc1nc2cnc3ccc(C#N)cc3c2n1[C@@H]1CCO[C@H](C)C1 [Compound 187, 2-{8-cyano-1-[(2R,4R)-2-methyloxan-4-yl]-1H-imidazo[4,5-c]quinolin-2-yl}-N-(1,3,5-trimethyl-1H-pyrazol-4-yl)acetamide] | 9.47 | 0.241 |
| C[C@@H]1C[C@H](n2c(CNc3ncccn3)nc3cnc4ccc(C#N)cc4c32)CCO1 [Compound 105, 1-[(2R,4R)-2-methyloxan-4-yl]-2-{[(pyrimidin-2-yl)amino]methyl}-1H-imidazo[4,5-c]quinoline-8-carbonitrile] | 240 | 3.5 |
| C[C@@H]1C[C@H](n2c(CC(=O)NCC3CC3)nc3cnc4ccc(C#N)cc4c32)CCO1 [Compound 54, 2-{8-cyano-1-[(2R,4R)-2-methyloxan-4-yl]-1H-imidazo[4,5-c]quinolin-2-yl}-N-(cyclopropylmethyl)acetamide] | 14.9 | 0.336 |
| COCC1(NC(=O)Cc2nc3cnc4ccc(C#N)cc4c3n2[C@@H]2CCO[C@H](C)C2)CC1 [Compound 276] | 86 | 0.922 |
| CC(C)n1cc(NC(=O)Cc2nc3cnc4ccc(C#N)cc4c3n2[C@@H]2CCO[C@H](C)C2)cn1 [Compound 306, N-(1-isopropyl-4-pyrazolyl){3-[(2R,4R)-2-methyltetrahydro-2H-pyran-4-yl]-12-cyano-3,5,8-triazatricyclo[7.4.0.0^2,6]trideca-1(13),2(6),4,7,9,11-hexaen-4-yl}acetamide] | 16 | 0.721 |
| C[C@@H]1C[C@H](n2c(CC3CN(C(=O)OC(C)(C)C)C3)nc3cnc4ccc(C#N)cc4c32)CCO1 [Compound 73, tert-butyl 3-({8-cyano-1-[(2R,4R)-2-methyloxan-4-yl]-1H-imidazo[4,5-c]quinolin-2-yl}methyl)azetidine-1-carboxylate] | 251 | 3.88 |
| C[C@@H]1C[C@H](n2c(CC(=O)NC3(C#N)CC3)nc3cnc4ccc(C#N)cc4c32)CCO1 [Compound 282, N-1-cyanocyclopropyl{3-[(2R,4R)-2-methyltetrahydro-2H-pyran-4-yl]-12-cyano-3,5,8-triazatricyclo[7.4.0.0^2,6]trideca-1,4,6,8,10,12-hexaen-4-yl}acetamide] | 188 | 0.619 |
| C[C@@H]1C[C@H](n2c(CC(=O)Nc3cnoc3)nc3cnc4ccc(C#N)cc4c32)CCO1 [Compound 180, 2-{8-cyano-1-[(2R,4R)-2-methyloxan-4-yl]-1H-imidazo[4,5-c]quinolin-2-yl}-N-(1,2-oxazol-4-yl)acetamide] | 21.6 | 0.432 |
| C[C@@H]1C[C@H](n2c(CC(=O)Nc3ccncc3)nc3cnc4ccc(C#N)cc4c32)CCO1 [Compound 326, N-4-pyridyl{3-[(2R,4R)-2-methyltetrahydro-2H-pyran-4-yl]-12-cyano-3,5,8-triazatricyclo[7.4.0.0^2,6]trideca-1(9),2(6),4,7,10,12-hexaen-4-yl}acetamide] | 4.86 | 0.492 |
